Assay results taken from publication PMC7224190, “Pharmacological inhibition of PRMT7 links arginine monomethylation to the cellular stress response” (Nature Communications, 2020).

Assays:
Assay in all cases: biochemical
[1] = target: PRMT3 (Homo sapiens, UniProt O60678); parameters: radiometric methyltransferase selectivity assay with tritiated SAM, per cent activity; settings: read-out: % of control remaining
Method in brief: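 Radiometric methyltransferase assays with ³H-SAM and substrate near apparent Km, compound tested at 1 and 10 μM. Methyl incorporation into biotinylated substrate read by scintillation proximity after guanidine quench; no-compound = 100%, no-enzyme = 0% activity.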

[2] = target: T1, BCDIN3D (Homo sapiens, UniProt Q7Z5W3); parameters: radiometric methyltransferase assay with tritiated SAM, IC50
T1 sequence (Q7Z5W3 1-292): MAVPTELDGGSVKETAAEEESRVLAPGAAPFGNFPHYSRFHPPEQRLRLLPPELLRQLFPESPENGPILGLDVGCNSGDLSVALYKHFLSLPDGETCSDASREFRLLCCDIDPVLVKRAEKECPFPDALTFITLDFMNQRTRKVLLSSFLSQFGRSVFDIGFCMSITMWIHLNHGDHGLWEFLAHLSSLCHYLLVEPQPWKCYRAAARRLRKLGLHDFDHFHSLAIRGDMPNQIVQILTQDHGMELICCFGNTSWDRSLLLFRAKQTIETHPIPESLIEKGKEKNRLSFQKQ

[3] = target: DOT1L (Homo sapiens, UniProt Q8TEK3); parameters: radiometric methyltransferase assay with tritiated SAM, IC50
DOT1L, sequence (Q8TEK3 whole entry): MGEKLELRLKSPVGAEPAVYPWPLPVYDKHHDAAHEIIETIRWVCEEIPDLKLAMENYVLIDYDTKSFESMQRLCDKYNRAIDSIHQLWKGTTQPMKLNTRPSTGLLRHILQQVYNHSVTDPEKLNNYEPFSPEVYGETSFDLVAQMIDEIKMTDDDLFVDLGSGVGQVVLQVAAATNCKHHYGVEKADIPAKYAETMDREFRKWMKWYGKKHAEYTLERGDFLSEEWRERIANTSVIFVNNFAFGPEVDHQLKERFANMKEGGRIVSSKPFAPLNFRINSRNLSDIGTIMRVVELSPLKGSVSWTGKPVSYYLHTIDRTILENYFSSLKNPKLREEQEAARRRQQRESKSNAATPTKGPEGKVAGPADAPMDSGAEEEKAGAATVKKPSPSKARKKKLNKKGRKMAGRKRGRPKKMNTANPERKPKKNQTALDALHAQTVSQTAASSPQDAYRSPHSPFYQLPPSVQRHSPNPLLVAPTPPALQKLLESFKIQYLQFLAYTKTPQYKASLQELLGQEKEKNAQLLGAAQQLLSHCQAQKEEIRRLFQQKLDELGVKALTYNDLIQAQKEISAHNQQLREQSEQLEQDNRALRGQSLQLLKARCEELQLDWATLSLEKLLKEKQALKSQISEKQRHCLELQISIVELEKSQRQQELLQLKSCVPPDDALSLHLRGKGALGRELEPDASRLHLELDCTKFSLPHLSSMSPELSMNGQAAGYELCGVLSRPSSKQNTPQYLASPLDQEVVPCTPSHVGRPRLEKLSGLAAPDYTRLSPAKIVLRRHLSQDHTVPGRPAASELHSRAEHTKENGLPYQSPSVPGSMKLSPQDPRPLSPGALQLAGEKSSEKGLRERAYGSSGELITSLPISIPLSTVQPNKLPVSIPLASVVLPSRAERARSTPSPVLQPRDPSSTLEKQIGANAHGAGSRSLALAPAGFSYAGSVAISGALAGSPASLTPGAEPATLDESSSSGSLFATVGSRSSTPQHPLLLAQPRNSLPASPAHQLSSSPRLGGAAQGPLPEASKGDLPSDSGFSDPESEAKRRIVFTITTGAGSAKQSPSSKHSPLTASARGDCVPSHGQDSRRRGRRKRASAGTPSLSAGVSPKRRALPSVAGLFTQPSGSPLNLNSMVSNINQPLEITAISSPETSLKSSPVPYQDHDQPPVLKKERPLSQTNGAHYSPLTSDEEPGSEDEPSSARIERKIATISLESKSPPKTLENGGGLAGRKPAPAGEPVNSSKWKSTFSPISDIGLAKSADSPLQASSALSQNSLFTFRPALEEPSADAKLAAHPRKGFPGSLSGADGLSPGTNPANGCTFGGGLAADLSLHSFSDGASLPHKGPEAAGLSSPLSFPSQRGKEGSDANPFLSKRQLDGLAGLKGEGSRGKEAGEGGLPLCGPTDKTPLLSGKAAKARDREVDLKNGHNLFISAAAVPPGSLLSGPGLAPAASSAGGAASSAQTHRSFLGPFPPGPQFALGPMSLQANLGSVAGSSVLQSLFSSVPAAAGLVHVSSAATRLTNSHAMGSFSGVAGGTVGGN

[4] = target: PRMT1 (Homo sapiens, UniProt Q99873); parameters: radiometric methyltransferase assay with tritiated SAM, IC50
PRMT1, sequence (Q99873 whole entry): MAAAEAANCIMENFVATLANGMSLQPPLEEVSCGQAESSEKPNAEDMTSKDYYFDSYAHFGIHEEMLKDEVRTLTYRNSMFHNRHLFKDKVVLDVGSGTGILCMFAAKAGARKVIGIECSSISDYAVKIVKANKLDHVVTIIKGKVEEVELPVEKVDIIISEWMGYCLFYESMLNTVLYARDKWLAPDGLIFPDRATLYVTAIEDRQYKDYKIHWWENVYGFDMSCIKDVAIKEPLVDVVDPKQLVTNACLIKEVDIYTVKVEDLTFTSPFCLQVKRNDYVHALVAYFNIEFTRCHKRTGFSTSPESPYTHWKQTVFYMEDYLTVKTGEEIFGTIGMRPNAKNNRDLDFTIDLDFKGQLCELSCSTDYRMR

[5] = target: PRMT6 (Homo sapiens, UniProt Q96LA8); parameters: radiometric methyltransferase assay with tritiated SAM, IC50
PRMT6, sequence (Q96LA8 whole entry): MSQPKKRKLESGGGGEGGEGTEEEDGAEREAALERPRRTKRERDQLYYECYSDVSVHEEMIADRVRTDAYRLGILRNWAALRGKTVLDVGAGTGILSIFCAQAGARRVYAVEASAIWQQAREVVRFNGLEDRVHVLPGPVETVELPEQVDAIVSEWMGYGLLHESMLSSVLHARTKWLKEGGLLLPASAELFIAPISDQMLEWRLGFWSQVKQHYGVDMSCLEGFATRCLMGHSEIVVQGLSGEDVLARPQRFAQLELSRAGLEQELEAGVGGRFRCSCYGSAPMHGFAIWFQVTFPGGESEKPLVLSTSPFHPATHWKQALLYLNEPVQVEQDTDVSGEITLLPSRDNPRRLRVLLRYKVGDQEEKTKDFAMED

[6] = target: T2, PRMT9 (Homo sapiens, UniProt Q6P2P2); parameters: radiometric methyltransferase assay with tritiated SAM, IC50
T2 sequence (Q6P2P2 1-845): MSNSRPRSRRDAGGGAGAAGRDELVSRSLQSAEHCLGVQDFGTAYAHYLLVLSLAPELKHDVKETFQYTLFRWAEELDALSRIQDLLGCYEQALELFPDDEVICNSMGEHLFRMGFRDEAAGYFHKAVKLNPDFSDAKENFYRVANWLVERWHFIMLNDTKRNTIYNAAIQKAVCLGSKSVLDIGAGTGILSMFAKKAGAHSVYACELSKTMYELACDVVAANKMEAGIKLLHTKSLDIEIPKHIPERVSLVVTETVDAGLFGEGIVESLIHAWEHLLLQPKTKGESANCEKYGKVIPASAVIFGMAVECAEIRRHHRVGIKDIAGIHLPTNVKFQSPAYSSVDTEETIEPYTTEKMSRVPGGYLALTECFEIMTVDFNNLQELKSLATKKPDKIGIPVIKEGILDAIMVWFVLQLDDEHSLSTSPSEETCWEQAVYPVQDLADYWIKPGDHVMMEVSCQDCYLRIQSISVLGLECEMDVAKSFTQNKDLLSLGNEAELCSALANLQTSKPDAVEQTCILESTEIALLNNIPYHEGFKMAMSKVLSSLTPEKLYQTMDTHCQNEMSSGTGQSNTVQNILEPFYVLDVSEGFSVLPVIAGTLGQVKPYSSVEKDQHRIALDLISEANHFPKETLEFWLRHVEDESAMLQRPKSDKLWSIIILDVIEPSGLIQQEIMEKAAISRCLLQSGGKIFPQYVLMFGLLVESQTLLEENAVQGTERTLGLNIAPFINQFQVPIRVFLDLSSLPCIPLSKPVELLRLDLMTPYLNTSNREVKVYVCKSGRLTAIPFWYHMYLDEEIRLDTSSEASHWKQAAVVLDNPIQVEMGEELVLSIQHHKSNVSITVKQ

PRMT3, sequence (O60678 whole entry): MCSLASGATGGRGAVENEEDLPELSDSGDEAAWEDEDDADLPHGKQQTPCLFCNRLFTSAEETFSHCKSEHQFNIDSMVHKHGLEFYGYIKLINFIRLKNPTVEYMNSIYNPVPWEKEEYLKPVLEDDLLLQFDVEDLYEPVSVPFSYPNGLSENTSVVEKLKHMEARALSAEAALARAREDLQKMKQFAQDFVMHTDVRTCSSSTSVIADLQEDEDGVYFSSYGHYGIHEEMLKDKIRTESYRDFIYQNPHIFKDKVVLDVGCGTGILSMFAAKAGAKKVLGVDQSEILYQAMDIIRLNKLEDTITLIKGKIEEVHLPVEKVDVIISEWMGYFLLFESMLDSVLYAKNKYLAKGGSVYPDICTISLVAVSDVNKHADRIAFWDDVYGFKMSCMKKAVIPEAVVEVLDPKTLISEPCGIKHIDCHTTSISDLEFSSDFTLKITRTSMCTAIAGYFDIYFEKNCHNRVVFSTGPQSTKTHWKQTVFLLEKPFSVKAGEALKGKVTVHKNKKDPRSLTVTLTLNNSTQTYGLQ

| Structure (SMILES) | remaining activity at 1 µM [1] [%] | remaining activity at 10 µM [1] [%] | IC50 [2] [nM] | IC50 [3] [nM] | IC50 [4] [nM] | IC50 [5] [nM] | IC50 [6] [nM] |
| --- | --- | --- | --- | --- | --- | --- | --- |
| CC1(C)O[C@@H]2[C@H](O1)[C@@H](CSCCCCNCc1cccc(-c3ccc(Cl)cc3)c1)O[C@H]2n1cnc2c(N)ncnc21 [SGC8158N] | 96 | 96 |  |  |  |  |  |
| Nc1ncnc2c1ncn2[C@@H]1O[C@H](CSCCCCNCc2cccc(-c3ccc(Cl)cc3)c2)[C@@H](O)[C@H]1O [SGC8158] | 57 | 6 | 1100 | 1700 | 12000 | 15000 | 160 |
